Experimental data reported in patent USRE46873E1, “Multi-targeted RNAi therapeutics for scarless wound healing of skin” (Sirnaomics, Inc., priority 2007, dated 2018).
Bridges are numbered along the chain shown (N, C = ends). Roman numbers before positions name the chains, in order. Where no end group is shown, it is not given here.

Experiments:
lung, liver, and kidney = assay: In vivo toxicity of HK peptides after intravenous administration; conditions: mice, 1000 μg, 24 h after injection; preliminary studies
Description: H2K4b, had the strongest antifungal effect reducing growth of C. albicans to nearly 40% at 37.5 μg/ml (3.4 μM) and 85% at 50 μg/ml (4.5 μM). […] Relative to in vitro toxicity, the in vivo toxicity differences among these peptides are more striking. […] Of the three organs examined, the kidney appears to be the most sensitive to these peptides. Relative to H2K4b, a decrease in cationic charge in the terminal branches of H3K4b and H3K(G)K4b may, in part, account for their reduced toxicity in vitro and in vivo; the reduction in charge may decrease their interaction with negatively charged cell membranes. With eight additional glycines, H3K(G)4b polymer has a reduced charge per total number of amino acids relative to H3K4b. Because there are five lysines in each terminal arm of H3K(G)4b and H3K4b, however, we doubt that minimal charge differences readily explain the reduced toxicity of H3K(G)4b relative to H3K4b. An alternative possibility is that glycines may disrupt alpha helices in the terminal branches, thereby enhancing the flexibility of the polymer and allowing enzymatic degradation. Several secondary structure programs for peptides predict a marked difference in the alpha helical content between a glycine containing peptide, H3K(G)4b, and the non-glycine containing peptides, H2K4b and H3K4b.

Cox-2 mRNA in PC3 cells = assay: siRNA transfection of PC3 cells, RT-PCR of Cox-2; format: cell-based; conditions: human PC3 cells
Description: (§1) • 4. Human prostate carcinoma cell-PC3 was used for detection of the gene expression knockdown. A series of standard transfection experiments were carried out using the protocol provided by the vendor (Invitrogen) with the siRNA duplexes identified in step 2 accordingly. • 5. Total RNA samples were isolated and subjected to RT-PCR analysis using the respective PCR primers identified in step 3 above.
(§2) Among ten in silico designed 25 mer siRNA sequences, we first pick three for testing. Before testing those siRNA oligos (synthesized by Qiagen) in the corresponding cells, such as human PC-3 cell (a bone metastasis of a […] prostatic adenocarcinoma), we first use RT-PCR to survey the presence of the target gene expression in the total RNA samples (FIG. 14). […] We further surveyed the expression of these three genes in the mouse C166 cell. […] Therefore, we can transfect the three selected siRNA oligos targeting a particular gene into the corresponding cell and then evaluate their gene silencing potential, followed by total RNA isolation and RT-PCR analysis. Three doses were used for each transfection on the 6-well plate: 0.5 ug, 1 ug and 2 ug, with Lipo2000 following the vendor's direction. […] The RT-PCR products were also subjected to the gel electrophoreses and quantification. […]

Hoxb13 mRNA in PC3 cells = assay: siRNA transfection of PC3 cells, RT-PCR of Hoxb13; format: cell-based; conditions: human PC3 cells
Description: as §1, §2

TGF-β1 mRNA in PC3 cells = assay: siRNA transfection of PC3 cells, RT-PCR of TGF-beta1; format: cell-based; conditions: human PC3 cells
Description: as §1, §2

“I: KHHHKHHHKHHHKHHHKKKK-NH2 / II: KHHHKHHHKHHHKHHHK / III: KHHHKHHHKHHHKHHHK / IV: KHHHKHHHKHHHKHHHK (amide I:18-IV:C, I:19-III:C, I:20-II:C) [H3K4b]” was tested, and the organ toxicity (lung, liver, and kidney) was “minimally toxic to the kidney”.

For “hmCX-1: 25-mer siRNA duplex targeting human and mouse COX-2; sense 5′-GGUCUGGUGCCUGGUCUGAUGAUGU-3′ (SEQ ID NO: 9) (antisense ACAUCAUCAGACCAGGCACCAGACC; listed as RNA, further chemistry not given here)”, the “Cox-2 gene expression / silencing activity (RT-PCR)” value (Cox-2 mRNA in PC3 cells) was “potent”.

“hmHX-1: 25-mer siRNA duplex targeting human and mouse HoxB13; sense 5′-GGUGGCUGGAACAGCCAGAUGUGUU-3′ (SEQ ID NO: 7) (antisense AACACAUCUGGCUGUUCCAGCCACC; listed as RNA, further chemistry not given here)” was tested, and the “Hoxb13 gene expression / silencing activity (RT-PCR)” value (Hoxb13 mRNA in PC3 cells) was “potent”.

For “hmTF-2: 25-mer siRNA duplex targeting human and mouse TGF-β1; sense 5′-CCCAAGGGCUACCAUGCCAACUUCU-3′ (SEQ ID NO: 11) (antisense AGAAGUUGGCAUGGUAGCCCUUGGG; listed as RNA, further chemistry not given here)”, the “TGF-β1 gene expression / silencing activity (RT-PCR)” value (TGF-β1 mRNA in PC3 cells) was “potent”.
